Data as given in patent US10787465B2, “Lanthanide toolbox for organelle specific molecular imaging with multi-color” (New Life Medicine Technology Company Limited, priority 2017, dated 2020).

Legend:
[1] = test system: SK-N-SH cells; assay: MTT cell cytotoxicity assay, SK-N-SH; assay type: cell-based, Human; conditions: Incubation time = 24 hours
Description: (§1) Human cervical cancer HeLa cells were grown in Dulbecco's Modified Eagle Medium (DMEM). Human lung normal diploid fibroblasts MRC-5 and neuroblastoma cells SK-N-SH were provided by Cell resource center of Shanghai Institute of Biological Sciences, Chinese Academy of Sciences; and cultured in MEM (GIBCO 41500034); Human derived liver cells QSG-7701 cells were grown in RPMI-1640 (GIBCO 31800022); all cells were supplemented with 10% (v/v) fetal bovine serum, 1% penicillin and streptomycin at 37° C. and 5% CO2.
(§2) HeLa, SKA-SH, QSG-7701 or MRC-5 cells treated with testing complexes for 24 hours were further incubated with MTT, 3-(4,5-dimethylthiazol-2-yl)-2 and 5-diphenyltetrazolium bromide (0.5 mg; ml) for 4 hours, to produce formazan during cell metabolism. Then, formazan was thoroughly dissolved by dimethyl sulfoxide (DMSO), and the absorbance of solutions was measured in Bio-Rad iMark microplate reader (570 nm). Quadruplicates were performed. Data analysis and plotting were operated by the GraphPad Prism 5 software.

[2] = Photophysical studies (absorption, emission, decay lifetime, quantum yield); assay type: physicochemical
Description: UV-Visible absorption spectra in the spectral range 200 to 1100 nm were recorded by an HP Agilent UV-8453 Spectrophotometer. The emission spectra and the emission decay lifetimes of HGEu001 and HGEu002 were measured by Horiba Fluorolog-3 spectrophotometer and also measured by Edinburgh instrument ELS920 spectrophotometer for cross checking. (Two spectrophotometers are equipped with a 450 W continuous xenon lamp for steady state emission measurement, 60 W xenon flashlamp for emission life time measurement and an UV-Vis PMT detector—Hamamatsu—R928 cooled 216 at −20° C.)
UV-Visible absorption spectra of HGEu001-Coumarin and HGEu001-Por were recorded by an HP Agilent UV-8453 Spectrophotometer. The emission spectra of HGEu001-Coumarin and HGEu001-Por were measured by Horiba Fluorolog-3 spectrophotometer, which was equipped with a 450 W continuous xenon lamp and a UV-Vis PMT detector—Hamamatsu—R928 cooled 216 at −20° C. for steady state emission measurement.

[3] = test system: HeLa cells; assay: MTT cell cytotoxicity assay, HeLa; assay type: cell-based, Human; conditions: Incubation time = 24 hours
Description: as §1, §2

[4] = test system: QSG-7701 cells; assay: MTT cell cytotoxicity assay, QSG-7701; assay type: cell-based, Human; conditions: Incubation time = 24 hours
Description: as §1, §2

[5] = test system: GFP-ARL13B; assay: Co-localization imaging with primary cilia marker GFP-ARL13B; assay type: cell-based, Human; conditions: HeLa cells, 10 μM
Source text: (§3) (a) 3D Co-Localization Imaging of HGEu001 and HGEu002 with Primary Cilia Markers ARTL13B and IFT88.
(§4) Full length ARTL13B (ADP-ribosylation factor-like protein 13B) was PCR amplified from cDNA library and inserted into multiple cloning sites (MCS) of pEGFP-C3 (CLONETECH, #6082-1) using restriction digestion sites of XhoI/EcorI for GFP-ARTL13B expression. […] Plasmid mEmerald-IFT88-N-18 (intraflagellar transport protein 88 homolog) expressing GFP-IFT88 was a gift from Michael Davidson (Addgene plasmid #54125). Plasmids were amplified in E. coli (DH5α) and purified using a StarPrep Plasmid Miniprep Kit (Genstar). Both GFP-ARL13B and GFP-ITF88 for primary cilium tracking were expressed in HeLa cells through lipofectamine2000 (Cat. No.11668-019, Invitrogen) mediated transfection. Briefly, a 3.5 cm dish of HeLa cells (with 70-80% confluent) was transfected with 4 μg DNA plus 4 μL lipotectamine2000 mixture according to the manufacturer instructions. After incubation for 8 hours, 10 μM of HGEu001 or HGEu002 were added and incubated for 6 hours.

[6] = test system: MRC-5 cells; assay: MTT cell cytotoxicity assay, MRC-5; assay type: cell-based, Human; conditions: Incubation time = 24 hours
Description: as §1, §2

[7] = test system: GFP-IFT88; assay: Co-localization imaging with primary cilia marker GFP-IFT88; assay type: cell-based, Human; conditions: HeLa cells, 10 μM, 6 hours, z stack, λex=700 nm
Source text: as §3, §4

[8] = test system: organelles (mitochondria, lysosome and Golgi apparatus); assay: Co-localization imaging with organelle probes; assay type: cell-based, Human; conditions: HeLa cells, 10 μM, 6 hours, MitoTracker Green FM
Description: (b) Co-Localization Imaging of HGEu001 and HGEu002 with Organelles.
Live cell labeling probes of organelles (mitochondria, lysosome and Golgi apparatus) MitoTracker® Green FM (M-7514), LysoTracker® Green DND-26 (L-7526) and GolgiTracker® Oregon Green (W6748, Wheat Germ Agglutinin) were respectively purchased from ThermoFisher Scientic Inc. and stocked in −20° C.
Three dishes of HeLa cells (1×10^5) were first incubated with 10 μM HGEu001/HGEu002 for 6 hours. Then organelles probes (50 nM, each) were added in parallel to the cells and further incubated for 15 minutes. The cells were washed by PBS 3 times before imaging on the linear fluorescence microscopy. Under the excitation of UV light (375 nm) emission from the channel (610-630 nm) were collected for the emission signals from HGEu001/HGEu002. Under 488 nm blue light excitation, imaging channel in the range between 505 and 555 nm were collected from the emission signal of organelles dyes.

[9] = test system: HeLa cells; assay: Two-photon confocal in vitro imaging (subcellular localization); assay type: cell-based, Human; conditions: 10 μM; for localization of red emission: two-photon λex=700 nm
Description: Cells were seeded on coverslip in 35-mm culture dishes overnight. And then incubated with HGEu001 or HGEu002 (10 μM) for 6 hours, and the cells were washed by PBS 3 times before imaging. […] Then the unabsorbed complexes were washed out with PBS buffer and the cells were subject to microscopic imaging. The in vitro imaging of HGEu001 and HGEu002 were undertaken on a linear fluorescence microscopy under 375 nm UV light excitation or a confocal laser scanning microscope, Leica TCS SP8, equipped with a Ti:sapphire laser (Libra II, coherent). The excitation beam produced by 690 nm to 1080 nm (fs laser) was focused on the adherent cells through a 63× oil immersion objective.
3D images obtained by the Z-stacks form the two-photon confocal microscopy and the 3D reconstruction was done with built-in programs of Leica TCS SP8 confocal microscope.

Structure (SMILES): CC(C)(C)NC(=O)CN1CCN(CC(=O)NC(C)(C)C)CCN(Cc2cc(C#Cc3ccc(NC(=O)c4ccc(C(F)(F)F)cc4)cc3)ccn2)CCN(CC(=O)NC(C)(C)C)CC1.O.[Cl-].[Cl-].[Cl-].[Eu+3] [HGEu002]
- IC50 [1]: 437 µM
- τ(D2O), europium emission decay lifetime ([2]; D2O, λem = 614 nm, 5D0→7F2, λex = 340 nm): 1.78 ms
- τ(H2O), europium emission decay lifetime ([2]; H2O, λem = 614 nm, 5D0→7F2, λex = 340 nm): 0.56 ms
- ε (absorption coefficient) ([2]; in H2O, 298K): 22200 M⁻¹ cm⁻¹
- λmax (absorption) ([2]; in H2O, 298K): 327 nm
- ΦL^Eu, overall europium emission quantum yield ([2]; in H2O, by integrated sphere): 10.3%
- q, derived hydration number ([2]; q (±20%), from k(H2O) and k(D2O)): 0.9
- IC50 [3]: 417 µM
- IC50 [4]: 410 µM
- overlap of red emission with green emission of GFP-ARL13B (merged images) ([5]; 6 hour incubation after GFP transfection): only slight yellow emission can be found in their merged images
- merged emission on co-staining with GFP-ARL13B, three dimensional imaging ([5]; 6 hours, z stack, λex=700 nm): did not show merged yellow in vitro emission
- IC50 [6]: 402 µM
- merged emission on co-staining with GFP-IFT88, three dimensional imaging [7]: did not show merged yellow in vitro emission
- merged emission with green mito-tracker, three dimensional imaging [8]: did not show merged yellow in vitro emission
- localization of red emission ([9]; 3 hours incubation): localized in cytoplasm
- localization of red emission ([9]; 6 hours incubation): localized in cytoplasm
- europium emission in the rod-like organelles, three dimensional confocal images ([9]; 6 hours, z stack, excitation at 700 nm): did not show any europium emission in the rod-like organelles
- localization of red emission ([9]; 18 hours incubation): localized in cytoplasm
- localization of red emission ([9]; 24 hours incubation): localized in cytoplasm
